Test results from ChEMBL document CHEMBL1201862, “PubChem BioAssay data set” (2004).
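These data come from cells grown in 96-well plates and exposed to compound for 48 hours at five concentrations. At the GI50, growth is halved.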 The source made the active and inactive calls. Cut-off read from the data, not from the text of the source: active = GI50 up to about 1.1 µM and inactive = higher.

Assays:
Assay in all cases: NCI anticancer screen, dose series, 48 h
[1] = system: K562
[2] = system: NCI/ADR-RES
[3] = system: HCT-116
[4] = system: HT-29
[5] = system: SK-OV-3
[6] = system: A498
[7] = system: UACC-62
[8] = system: SW-620
[9] = system: COLO 205
[10] = system: SF-295
[11] = system: M14
[12] = system: BT-549
[13] = system: HCT-15
[14] = system: NCI-H522
[15] = system: HL-60
[16] = system: Malme-3M
[17] = system: MDA-MB-435
[18] = system: SNB-19
[19] = system: U-251
[20] = system: OVCAR-4

Row | Structure (SMILES) | GI50 [1] | GI50 [2] | GI50 [3] | GI50 [4] | GI50 [5] | GI50 [6] | GI50 [7] | GI50 [8] | GI50 [9] | GI50 [10] | GI50 [11] | GI50 [12] | GI50 [13] | GI50 [14] | GI50 [15] | GI50 [16] | GI50 [17] | GI50 [18] | GI50 [19] | GI50 [20]
1 | CCc1ccc(Nc2cc(=O)[nH]c(SCc3ccccc3)n2)cc1 | > 100 µM (inactive) | 74.1 µM (inactive) | 80.7 µM (inactive) | > 100 µM (inactive) | > 100 µM (inactive) | > 100 µM (inactive) | 48.8 µM (inactive) | > 100 µM (inactive) | > 100 µM (inactive) | 46.2 µM (inactive) | > 100 µM (inactive) | > 100 µM (inactive) | > 100 µM | > 100 µM (inactive) | > 100 µM (inactive) | > 100 µM (inactive) | > 100 µM (inactive) | 38.2 µM (inactive) |  | 
2 | CC1=C[C@H](C[C@]2(C)c3c(c4c(C)cccc4oc3=O)O[C@@H]2C)OC1=O | 28 µM (inactive) | 20.1 µM (inactive) | 15.7 µM (inactive) | 35.6 µM (inactive) | > 100 µM (inactive) | > 100 µM (inactive) | 73.1 µM (inactive) | 21.7 µM (inactive) | 49.9 µM (inactive) | > 100 µM (inactive) | 66.1 µM (inactive) | 23.4 µM (inactive) | 18.3 µM | 22.6 µM (inactive) | 22.5 µM (inactive) | 29.9 µM (inactive) | 41.7 µM (inactive) | > 100 µM (inactive) | > 100 µM (inactive) | 
3 | Cc1c2oc(=O)c(C#N)cc2c2ccccn12 | > 100 µM (inactive) | > 100 µM (inactive) | 37.6 µM (inactive) | > 100 µM (inactive) | > 100 µM (inactive) | > 100 µM (inactive) | > 100 µM (inactive) | > 100 µM (inactive) | > 100 µM (inactive) | 20.2 µM (inactive) | 70.1 µM (inactive) | 25.8 µM (inactive) | 89.9 µM |  | > 100 µM (inactive) | 97.3 µM (inactive) | > 100 µM (inactive) | > 100 µM (inactive) | 99.3 µM (inactive) | > 100 µM (inactive)
4 | Cc1ncc([N+](=O)[O-])n1CCNC(=O)CCCCn1ccnc1[N+](=O)[O-] | > 100 µM (inactive) | > 100 µM (inactive) | > 100 µM (inactive) | > 100 µM (inactive) | > 100 µM (inactive) | > 100 µM (inactive) | > 100 µM (inactive) | > 100 µM (inactive) | 36.3 µM (inactive) | > 100 µM (inactive) | > 100 µM (inactive) | > 100 µM (inactive) | > 100 µM | > 100 µM (inactive) | > 100 µM (inactive) | > 100 µM (inactive) | > 100 µM (inactive) | > 100 µM (inactive) | > 100 µM (inactive) | 
5 | O=C(O)c1nc2cc(C(F)(F)F)ccc2nc1Nc1ccc(F)cc1 | 13.5 µM (inactive) | 20 µM (inactive) | 15.4 µM (inactive) | 23 µM (inactive) | 30.7 µM (inactive) | 14.3 µM (inactive) | 12.6 µM (inactive) | 17.3 µM (inactive) | 15.9 µM (inactive) | 13.4 µM (inactive) | 27 µM (inactive) | 12.6 µM (inactive) |  | 7.5 µM (inactive) |  | 12.4 µM (inactive) | 7.71 µM (inactive) | 16.7 µM (inactive) | 18.3 µM (inactive) | 
6 | C(/c1ccco1)=c1/nc(-c2ccccc2)n2c1nc1ccccc12 | 20.9 µM (inactive) | 23.4 µM (inactive) | 15.5 µM (inactive) | 26.6 µM (inactive) | 22.4 µM (inactive) | > 100 µM (inactive) | 63.1 µM (inactive) | 21.7 µM (inactive) | 98.9 µM (inactive) | 12.9 µM (inactive) | 22.6 µM (inactive) | 15.8 µM (inactive) | 97.3 µM |  | > 100 µM (inactive) | 16.4 µM (inactive) | 14.4 µM (inactive) | > 100 µM (inactive) | 40.6 µM (inactive) | 20.5 µM (inactive)
